Here are results for eleven compounds from US10538555B2, “Macrocyclic inhibitors of the PD-1/PD-L1 and CD80(B7-1)/PD-L1 protein/protein interactions” (BRISTOL-MYERS SQUIBB COMPANY, priority 2014, dated 2020).

This assay has as its target T1, Human PD-L1/PD-1 (Homo sapiens, UniProt Q9NZQ7).
T1 construct: TVMV protease cleavage site (C); made in house; host or cells: HEK293T cells
Description: HTRF Human PD-L1/PD-1 binding assay (PD-1-Ig/PD-L1-His). To be noted: PD-L1-His 10 nM, PD-1-Ig 20 nM. Put shortly: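 Step 1: compound with PD-L1-His (10 nM final), 15 min. Step 2: PD-1-Ig (20 nM final), 15 min. Step 3: Eu-cryptate anti-Ig (1 nM) plus APC anti-His (20 nM), 30 min equilibration. Signal taken as 665 nm/620 nm ratio.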

[1] abbreviates: class symbol, read-out: HTRF Human PD-L1/PD-1 Binding Assay IC50 Range.
The mark [2] stands for this setting: read-out: HTRF Human PD-L1/PD-1 Binding Assay IC50.

SMILES strings stand for the structures. Where two headings read alike, the source gives them in different places. *1 amine or outer side, *2 acyl side, *3 side chain or, on linkers, in order; H or OH if unused. Where a SMILES comes first, the peptide text is derived from it. Bridges are numbered along the chain shown (N, C = ends). [ ]: non-standard residue; d: D form. Trp(1-CH2COOH) = N[C@@H](Cc1cn(CC(=O)O)c2ccccc12)C(=O)O; Phe(3,4,5-F3) = N[C@@H](Cc1cc(F)c(F)c(F)c1)C(=O)O; NMePhe(4-F) = CN[C@@H](Cc1ccc(F)cc1)C(=O)O; d(cisHyp) = O=C(O)[C@H]1C[C@@H](O)CN1; NMeY = CN[C@@H](Cc1ccc(O)cc1)C(=O)O; Hyp = O=C(O)[C@@H]1C[C@@H](O)CN1; NMeF = CN[C@@H](Cc1ccccc1)C(=O)O; X1 = O=C([C@H]1COCCN1[*:1])[*:2]; dHyp = O=C(O)[C@H]1C[C@H](O)CN1; NMeNle = CCCC[C@H](NC)C(=O)O; Pip = O=C(O)[C@@H]1CCCCN1; dPip = O=C(O)[C@H]1CCCCN1; NMeA = CN[C@@H](C)C(=O)O; Orn = NCCC[C@H](N)C(=O)O; Dab = NCC[C@H](N)C(=O)O; Dap = NC[C@H](N)C(=O)O

T1 sequence (Q9NZQ7 with tags, fused parts or gaps): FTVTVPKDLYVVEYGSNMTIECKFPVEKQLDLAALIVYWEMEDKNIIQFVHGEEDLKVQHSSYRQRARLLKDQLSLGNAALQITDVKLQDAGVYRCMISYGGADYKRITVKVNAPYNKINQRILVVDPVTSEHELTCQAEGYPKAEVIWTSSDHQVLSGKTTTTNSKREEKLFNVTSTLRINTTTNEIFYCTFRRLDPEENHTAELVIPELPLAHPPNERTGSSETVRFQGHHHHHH

With `CCCC[C@H]1C(=O)N(C)[C@@H](CCCC)C(=O)N[C@@H](CCC(=O)O)C(=O)N[C@H](C(=O)NCC(N)=O)CSCC(=O)N[C@@H](Cc2ccc(OC)cc2)C(=O)N(C)[C@@H](C)C(=O)N[C@@H](CC(=O)O)C(=O)N2CCC[C@H]2C(=O)N[C@@H](CN)C(=O)N[C@@H](CCCCN)C(=O)N2C[C@H](O)C[C@H]2C(=O)N[C@@H](Cc2c[nH]c3ccccc23)C(=O)N[C@@H](CC(=O)O)C(=O)N[C@@H](Cc2c[nH]c3ccccc23)C(=O)N1C` [Example 7130] ({CH2CO}-Y(Me)[NMeA]DP[Dap]K[Hyp]WDW[NMeNle][NMeNle]ECG-NH2; thioether N-14), under setting [1], the IC50 was in the range of 10 to 99.9 nM. On the same count and under the same terms, to `CCCC[C@H]1C(=O)N(C)[C@@H](CCCC)C(=O)N[C@@H](CCCN)C(=O)N[C@H](C(=O)NCC(N)=O)CSCC(=O)N[C@@H](Cc2ccc(OC)cc2)C(=O)N(C)[C@@H](C)C(=O)N[C@@H](CC(N)=O)C(=O)N2CCC[C@H]2C(=O)N[C@@H](Cc2cnc[nH]2)C(=O)N[C@@H](CCC(=O)O)C(=O)N2C[C@H](O)C[C@H]2C(=O)N[C@@H](Cc2c[nH]c3ccccc23)C(=O)N[C@@H](CC(=O)O)C(=O)N[C@@H](Cc2c[nH]c3ccccc23)C(=O)N1C` [Example 7097] ({CH2CO}-Y(Me)[NMeA]NPHE[Hyp]WDW[NMeNle][NMeNle][Orn]CG-NH2; thioether N-14) belongs 1 to 9.9 nM; to `CCCC[C@H]1C(=O)N2C[C@@H](O)C[C@@H]2C(=O)N[C@@H](CC(=O)O)C(=O)N[C@@H](C(C)C)C(=O)N(C)[C@@H](Cc2ccccc2)C(=O)N[C@@H](CCC(=O)O)C(=O)N2CCCC[C@@H]2C(=O)N[C@@H](Cc2c[nH]c3ccccc23)C(=O)N[C@@H](Cc2ccc(O)cc2)C(=O)N[C@@H](CCC(N)=O)C(=O)N[C@H](C(=O)NCC(N)=O)CSCC(=O)N[C@@H](Cc2cc(F)c(F)c(F)c2)C(=O)N(C)[C@@H](Cc2ccc(F)cc2)C(=O)N1C` [Example 10559] ({CH2CO}-[Phe(3,4,5-F3)][NMePhe(4-F)][NMeNle][dHyp]DV[NMeF]E[dPip]WYQCG-NH2; thioether N-13), 1 to 9.9 nM. As for `CCCC[C@H]1C(=O)N2C[C@H](O)C[C@@H]2C(=O)N[C@@H](CC(=O)O)C(=O)N[C@@H](C(C)C)C(=O)N(C)[C@@H](Cc2ccccc2)C(=O)N[C@@H](CCC(=O)O)C(=O)N2C[C@H](O)C[C@@H]2C(=O)N[C@@H](Cc2c[nH]c3ccccc23)C(=O)N[C@@H](Cc2ccc(O)cc2)C(=O)N[C@@H](CCCN)C(=O)N[C@H](C(=O)NCC(N)=O)CSCC(=O)N[C@@H](Cc2cc(F)c(F)c(F)c2)C(=O)N(C)[C@@H](Cc2ccc(F)cc2)C(=O)N1C` [Example 10612] ({CH2CO}-[Phe(3,4,5-F3)][NMePhe(4-F)][NMeNle][d(cisHyp)]DV[NMeF]E[d(cisHyp)]WY[Orn]CG-NH2; thioether N-13), the IC50 under setting [1] lay in the range of 1 to 9.9 nM. On to `CCCC[C@H]1C(=O)N2C[C@H](O)C[C@@H]2C(=O)N[C@@H](CC(=O)O)C(=O)N[C@@H](C(C)C)C(=O)N(C)[C@@H](Cc2ccccc2)C(=O)N[C@@H](CCC(=O)O)C(=O)N2C[C@H](O)C[C@@H]2C(=O)N[C@@H](Cc2c[nH]c3ccccc23)C(=O)N[C@@H](Cc2ccc(O)cc2)C(=O)N[C@@H](CCCN)C(=O)N[C@H](C(=O)NCC(N)=O)CSCC(=O)N[C@@H](Cc2cc(F)c(F)c(F)c2)C(=O)N(C)[C@@H](Cc2ccc(O)cc2)C(=O)N1C` [Example 10638] ({CH2CO}-[Phe(3,4,5-F3)][NMeY][NMeNle][d(cisHyp)]DV[NMeF]E[d(cisHyp)]WY[Orn]CG-NH2; thioether N-13), for which the IC50 under setting [2] came to 12.5 nM. Turning to `CCCC[C@H]1C(=O)N(C)[C@@H](CCCC)C(=O)N[C@@H](CCCN)C(=O)N[C@H](C(=O)NCC(N)=O)CSCC(=O)N[C@@H](Cc2ccc(O)cc2)C(=O)N2CCC[C@]2(C)C(=O)N[C@@H](CC(N)=O)C(=O)N2CCCC2C(=O)N[C@@H](Cc2cnc[nH]2)C(=O)N[C@@H](CC(C)C)C(=O)N2C[C@H](O)C[C@H]2C(=O)N[C@@H](Cc2c[nH]c3ccccc23)C(=O)N[C@@H](CO)C(=O)N[C@@H](Cc2c[nH]c3ccccc23)C(=O)N1C` (some centres unmarked) [Example 1241], the IC50 under setting [2] amounted to 1000 nM.

Take `CCCC[C@H]1C(=O)N(C)[C@@H](CCCC)C(=O)N[C@@H](CCC(=O)O)C(=O)N[C@H](C(=O)NCC(N)=O)CSCC(=O)N[C@@H](Cc2ccc(OC)cc2)C(=O)N(C)[C@@H](C)C(=O)N[C@@H](CCN)C(=O)N2CCC[C@H]2C(=O)N[C@@H](CN)C(=O)N[C@@H](CCCCN)C(=O)N2C[C@H](O)C[C@H]2C(=O)N[C@@H](Cc2c[nH]c3ccccc23)C(=O)N[C@@H](CCN)C(=O)N[C@@H](Cc2c[nH]c3ccccc23)C(=O)N1C` [Example 7123] ({CH2CO}-Y(Me)[NMeA][Dab]P[Dap]K[Hyp]W[Dab]W[NMeNle][NMeNle]ECG-NH2; thioether N-14): the IC50 under setting [1] lay in the range of 10 to 99.9 nM. Take `CCCC[C@H]1C(=O)N2C[C@@H](O)C[C@@H]2C(=O)N[C@@H](CC(=O)O)C(=O)N[C@@H](C(C)C)C(=O)N(C)[C@@H](Cc2ccccc2)C(=O)N[C@@H](CCC(=O)O)C(=O)N2CCOC[C@@H]2C(=O)N[C@@H](Cc2c[nH]c3ccccc23)C(=O)N[C@@H](Cc2ccc(O)cc2)C(=O)N[C@@H](CCCN)C(=O)N[C@H](C(=O)NCC(N)=O)CSCC(=O)N[C@@H](Cc2cc(F)c(F)c(F)c2)C(=O)N(C)[C@@H](Cc2ccccc2)C(=O)N1C` [Example 9321] ({CH2CO}-[Phe(3,4,5-F3)][NMeF][NMeNle][dHyp]DV[NMeF]E[X1]WY[Orn]CG-NH2; thioether N-13): the IC50 under setting [1] was in the range of 1 to 9.9 nM. For the compound `CCCC[C@H]1C(=O)N2C[C@H](O)C[C@@H]2C(=O)N[C@@H](CC(=O)O)C(=O)N[C@@H](C(C)C)C(=O)N(C)[C@@H](Cc2ccccc2)C(=O)N[C@@H](Cc2ccc(O)cc2)C(=O)N2C[C@@H](O)C[C@@H]2C(=O)N[C@@H](Cc2c[nH]c3ccccc23)C(=O)N[C@@H](Cc2ccc(O)cc2)C(=O)N[C@@H](CC(C)C)C(=O)N[C@H](C(=O)NCC(N)=O)CSCC(=O)N[C@@H](Cc2cc(F)c(F)c(F)c2)C(=O)N(C)[C@@H](Cc2ccccc2)C(=O)N1C` [Example 9371] ({CH2CO}-[Phe(3,4,5-F3)][NMeF][NMeNle][d(cisHyp)]DV[NMeF]Y[dHyp]WYLCG-NH2; thioether N-13), the IC50 under setting [1] fell in the range of 1 to 9.9 nM. Still for that read-out and setting: to `CCCC[C@H]1C(=O)N(C)[C@@H](CCCC)C(=O)N[C@@H](C)C(=O)N[C@H](C(=O)NCC(N)=O)CSCC(=O)N[C@@H](Cc2ccc(O)cc2)C(=O)N2CCCC[C@H]2C(=O)N[C@@H](CC(=O)O)C(=O)N2CCC[C@H]2C(=O)N[C@@H](Cc2cnc[nH]2)C(=O)N[C@@H](CCC(N)=O)C(=O)N2C[C@H](O)C[C@H]2C(=O)N[C@@H](Cc2c[nH]c3ccccc23)C(=O)N[C@@H](CO)C(=O)N[C@@H](Cc2cn(CC(=O)O)c3ccccc23)C(=O)N1C` [Example 1292] ({CH2CO}-Y[Pip]DPHQ[Hyp]WS[Trp(1-CH2COOH)][NMeNle][NMeNle]ACG-NH2; thioether N-14) belongs 10 to 99.9 nM. Take `CCCC[C@H]1C(=O)N2CCC[C@@H]2C(=O)N[C@@H](CC(=O)O)C(=O)N[C@@H](C(C)C)C(=O)N(C)[C@@H](Cc2ccccc2)C(=O)N[C@@H](CCCN)C(=O)N2CCC[C@@H]2C(=O)N[C@@H](Cc2c[nH]c3ccccc23)C(=O)N[C@@H](Cc2ccc(O)cc2)C(=O)N[C@@H](CC(C)C)C(=O)N[C@H](C(=O)NCC(N)=O)CSCC(=O)N[C@@H](Cc2ccccc2)C(=O)N(C)[C@@H](Cc2ccccc2)C(=O)N1C` [Example 10103] ({CH2CO}-F[NMeF][NMeNle][dP]DV[NMeF][Orn][dP]WYLCG-NH2; thioether N-13): the IC50 under setting [1] fell in the range of 1 to 9.9 nM.
